Literature values, collected in US11607129B2, “Combined positron emission tomography (PET)-electron paramagnetic resonance (EPR) imaging device” (West Virginia University, priority 2018, dated 2023).

Tested on: mouse
Details: as confirmed by recent cytotoxicity studies; probe hydrophilic, remains extracellular

phosphonated triarylmethyl radicals [pTAM]
toxicity to the mouse: minimal toxicity
